This assay has as its target T1, BsPdaC (Bacillus subtilis, UniProt O34798).
T1 construct: gene pdaC
T1 sequence (O34798 278-467 limits assumed): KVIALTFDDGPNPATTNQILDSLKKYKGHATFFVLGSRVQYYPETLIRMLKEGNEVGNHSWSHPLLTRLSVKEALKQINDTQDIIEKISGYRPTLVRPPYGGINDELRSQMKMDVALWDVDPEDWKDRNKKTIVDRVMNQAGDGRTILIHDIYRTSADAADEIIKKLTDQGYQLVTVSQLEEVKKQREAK
The assay can be described thus: deacetylation followed by HPLC-MS. The class given is biochemical. The conditions noted are these: 2 mM substrate, 4 μM enzyme, PBS pH 7.5, 37 °C.

Take `CC(=O)N[C@H]1[C@H](O[C@H]2[C@H](O)[C@@H](NC(C)=O)C(O)O[C@@H]2CO)O[C@H](CO)[C@@H](O[C@@H]2O[C@H](CO)[C@@H](O[C@@H]3O[C@H](CO)[C@@H](O)[C@H](O)[C@H]3NC(C)=O)[C@H](O)[C@H]2NC(C)=O)[C@@H]1O` (some centres unmarked) [CH4, N,N′,N″,N‴-tetraacetylchitotetraose]: the “deacetylation followed by HPLC-MS” value is “BsPdaC exhibited an effective deacetylation of standard CH4 and CH5 substrates”.

Turning to `CC(=O)N[C@H]1[C@H](O[C@H]2[C@H](O)[C@@H](NC(C)=O)[C@H](O[C@H]3[C@H](O)[C@@H](NC(C)=O)C(O)O[C@@H]3CO)O[C@@H]2CO)O[C@H](CO)[C@@H](O[C@@H]2O[C@H](CO)[C@@H](O[C@@H]3O[C@H](CO)[C@@H](O)[C@H](O)[C@H]3NC(C)=O)[C@H](O)[C@H]2NC(C)=O)[C@@H]1O` (some centres unmarked) [CH5], the “deacetylation followed by HPLC-MS” value is “BsPdaC exhibited an effective deacetylation of standard CH4 and CH5 substrates”.
